These results are taken from US20170190705A1, “Compositions and Methods for Inhibiting BMP” (THE BRIGHAM AND WOMAN'S HOSPITAL, INC., priority 2014, published 2017).

The target of one assay is T1, IKK-β (Homo sapiens, UniProt O14920).
T1 sequence (O14920 1-756): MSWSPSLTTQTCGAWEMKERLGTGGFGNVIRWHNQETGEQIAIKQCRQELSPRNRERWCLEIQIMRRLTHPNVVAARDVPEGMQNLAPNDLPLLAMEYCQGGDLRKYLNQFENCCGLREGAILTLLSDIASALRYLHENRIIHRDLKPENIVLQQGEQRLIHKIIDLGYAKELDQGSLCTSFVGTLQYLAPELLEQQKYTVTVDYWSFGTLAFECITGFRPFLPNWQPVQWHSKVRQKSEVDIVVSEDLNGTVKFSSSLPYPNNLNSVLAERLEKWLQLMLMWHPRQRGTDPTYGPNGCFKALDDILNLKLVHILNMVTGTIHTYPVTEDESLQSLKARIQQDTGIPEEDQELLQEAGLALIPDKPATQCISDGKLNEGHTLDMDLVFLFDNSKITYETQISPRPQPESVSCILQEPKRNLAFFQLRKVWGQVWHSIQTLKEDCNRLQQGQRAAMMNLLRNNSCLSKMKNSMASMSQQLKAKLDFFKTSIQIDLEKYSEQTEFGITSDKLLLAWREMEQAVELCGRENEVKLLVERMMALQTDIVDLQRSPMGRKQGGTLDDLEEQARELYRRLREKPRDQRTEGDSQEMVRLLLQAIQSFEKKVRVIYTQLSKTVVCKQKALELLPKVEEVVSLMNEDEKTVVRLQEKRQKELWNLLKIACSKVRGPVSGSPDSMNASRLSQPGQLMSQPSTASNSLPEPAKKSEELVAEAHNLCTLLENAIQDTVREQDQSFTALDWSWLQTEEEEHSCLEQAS
In words: Kinome profiling IKK-β. Format: biochemical. The conditions noted are these: read-out: Inhibitory activity IKK-β; for inhibition at 0.1 µM: 100 nM. The protocol:
(§1) . The kinome-wide selectivity was determined following the methods previously reported by Mohedas et al., ACS Chem Biol 2013, 8, 1291-1302 and Sanvitale et al., PLoS One 2013, 8, e62721.

The next assay addresses CDK1/cyclinB (Homo sapiens, UniProt P06493). In words: Kinome profiling CDK1/cyclinB. The format is biochemical. The conditions noted are these: read-out: Inhibitory activity CDK1/cyclinB; for inhibition at 0.1 µM: 100 nM. As for the experimental part: as §1
Another assay deals with ROCK2 (Homo sapiens, UniProt O75116). In words: Kinome profiling ROCK2. The format is biochemical. The conditions noted are these: read-out: Inhibitory activity ROCK2; for inhibition at 0.1 µM: 100 nM. The protocol: as §1
Sequence of ROCK2 (O75116 whole entry): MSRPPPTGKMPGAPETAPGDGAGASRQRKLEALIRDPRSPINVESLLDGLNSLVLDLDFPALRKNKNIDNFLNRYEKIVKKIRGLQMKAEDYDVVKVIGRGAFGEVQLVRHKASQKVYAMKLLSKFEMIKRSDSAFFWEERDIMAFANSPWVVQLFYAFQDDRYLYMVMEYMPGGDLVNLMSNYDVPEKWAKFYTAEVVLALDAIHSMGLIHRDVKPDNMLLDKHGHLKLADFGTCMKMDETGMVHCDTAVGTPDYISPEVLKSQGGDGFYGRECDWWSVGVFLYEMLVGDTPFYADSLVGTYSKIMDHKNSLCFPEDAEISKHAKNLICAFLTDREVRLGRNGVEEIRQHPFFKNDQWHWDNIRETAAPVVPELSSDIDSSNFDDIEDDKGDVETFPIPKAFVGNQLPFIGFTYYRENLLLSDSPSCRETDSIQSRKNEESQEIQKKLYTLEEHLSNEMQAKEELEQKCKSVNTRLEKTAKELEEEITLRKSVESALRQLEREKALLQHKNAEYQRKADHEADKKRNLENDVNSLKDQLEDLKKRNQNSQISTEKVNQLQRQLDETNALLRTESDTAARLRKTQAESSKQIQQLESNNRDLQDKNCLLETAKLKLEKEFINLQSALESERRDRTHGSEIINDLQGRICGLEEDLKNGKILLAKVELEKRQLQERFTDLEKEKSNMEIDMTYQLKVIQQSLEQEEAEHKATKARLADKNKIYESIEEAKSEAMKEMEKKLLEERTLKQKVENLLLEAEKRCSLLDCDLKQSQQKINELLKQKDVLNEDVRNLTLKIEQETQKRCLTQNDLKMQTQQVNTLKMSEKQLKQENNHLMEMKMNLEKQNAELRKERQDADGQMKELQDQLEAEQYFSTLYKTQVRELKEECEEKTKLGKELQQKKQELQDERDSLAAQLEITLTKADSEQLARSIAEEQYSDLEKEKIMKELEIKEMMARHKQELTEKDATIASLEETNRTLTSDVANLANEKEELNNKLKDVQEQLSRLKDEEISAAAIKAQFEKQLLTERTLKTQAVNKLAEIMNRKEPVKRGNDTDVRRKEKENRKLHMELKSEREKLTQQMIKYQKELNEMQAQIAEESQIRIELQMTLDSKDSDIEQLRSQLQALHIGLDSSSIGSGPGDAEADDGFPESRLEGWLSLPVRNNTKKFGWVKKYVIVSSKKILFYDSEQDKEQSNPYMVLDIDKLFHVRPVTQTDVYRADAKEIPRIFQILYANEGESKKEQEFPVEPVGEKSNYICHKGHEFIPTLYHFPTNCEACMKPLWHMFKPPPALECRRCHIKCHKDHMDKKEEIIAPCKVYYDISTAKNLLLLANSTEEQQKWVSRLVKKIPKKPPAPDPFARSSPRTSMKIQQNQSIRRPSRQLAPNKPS
Another assay deals with T2, BRSK2 (Homo sapiens, UniProt Q8IWQ3).
T2 sequence (Q8IWQ3 1-736): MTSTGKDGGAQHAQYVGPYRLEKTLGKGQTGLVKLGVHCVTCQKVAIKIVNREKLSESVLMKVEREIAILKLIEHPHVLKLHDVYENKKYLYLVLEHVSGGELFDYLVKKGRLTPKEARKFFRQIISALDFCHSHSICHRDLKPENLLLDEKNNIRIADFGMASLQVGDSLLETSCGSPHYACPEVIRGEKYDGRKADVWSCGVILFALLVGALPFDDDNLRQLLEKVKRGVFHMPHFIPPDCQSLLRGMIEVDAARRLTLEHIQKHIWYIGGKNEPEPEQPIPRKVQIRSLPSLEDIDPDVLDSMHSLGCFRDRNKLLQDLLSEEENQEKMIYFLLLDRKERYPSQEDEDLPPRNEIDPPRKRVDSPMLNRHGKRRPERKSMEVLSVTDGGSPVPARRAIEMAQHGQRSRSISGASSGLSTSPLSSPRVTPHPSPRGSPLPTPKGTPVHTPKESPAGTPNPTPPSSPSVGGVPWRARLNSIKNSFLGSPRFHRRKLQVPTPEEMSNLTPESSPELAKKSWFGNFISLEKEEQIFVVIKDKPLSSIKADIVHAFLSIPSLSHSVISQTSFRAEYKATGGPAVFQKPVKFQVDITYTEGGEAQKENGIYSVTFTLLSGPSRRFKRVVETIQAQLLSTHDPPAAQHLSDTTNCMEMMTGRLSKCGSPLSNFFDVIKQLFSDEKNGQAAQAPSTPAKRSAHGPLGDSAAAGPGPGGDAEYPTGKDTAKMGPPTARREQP
The experiment in a line: Kinome profiling BRSK2. Format: biochemical. Conditions: read-out: Inhibitory activity BRSK2; for inhibition at 0.1 µM: 100 nM. As for the experimental part: as §1

A further assay addresses CDK3/cyclinE (Homo sapiens, UniProt Q00526). In words: Kinome profiling CDK3/cyclinE. Format: biochemical. The conditions noted are these: read-out: Inhibitory activity CDK3/cyclinE; for inhibition at 0.1 µM: 100 nM. The protocol: as §1
A further assay has as its target LOK (Homo sapiens, UniProt O94804). The experiment in a line: Kinome profiling LOK. Format: biochemical. Conditions: read-out: Inhibitory activity LOK; for inhibition at 0.1 µM: 100 nM. The protocol:
as §1

Another assay has as its target CK1-γ1 (Homo sapiens, UniProt Q9HCP0). In words: Kinome profiling CK1-γ1. Format: biochemical. Conditions: read-out: Inhibitory activity CK1-γ1; for inhibition at 0.1 µM: 100 nM. As for the experimental part: as §1
The target in the next assay is YES (Homo sapiens, UniProt P07947). In words: Kinome profiling YES. The format is biochemical. The conditions noted are these: read-out: Inhibitory activity YES; for inhibition at 0.1 µM: 100 nM. As for the experimental part: as §1
Sequence of YES (P07947 whole entry): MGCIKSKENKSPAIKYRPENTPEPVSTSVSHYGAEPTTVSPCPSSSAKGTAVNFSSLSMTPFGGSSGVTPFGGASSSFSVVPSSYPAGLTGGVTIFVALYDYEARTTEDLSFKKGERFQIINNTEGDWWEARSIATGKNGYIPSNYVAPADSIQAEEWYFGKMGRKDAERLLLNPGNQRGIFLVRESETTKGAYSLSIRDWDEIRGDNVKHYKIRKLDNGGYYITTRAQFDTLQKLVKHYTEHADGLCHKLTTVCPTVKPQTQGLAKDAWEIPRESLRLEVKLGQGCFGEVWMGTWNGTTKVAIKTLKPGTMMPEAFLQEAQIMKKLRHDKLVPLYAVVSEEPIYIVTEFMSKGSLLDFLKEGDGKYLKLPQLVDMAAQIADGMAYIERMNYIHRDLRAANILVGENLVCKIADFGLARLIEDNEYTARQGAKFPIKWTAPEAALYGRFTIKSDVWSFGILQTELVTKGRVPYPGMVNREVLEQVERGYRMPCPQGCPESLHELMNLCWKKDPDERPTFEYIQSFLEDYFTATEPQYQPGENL
A further assay deals with T3, ALK2 (Homo sapiens, UniProt Q04771, Q207D).
T3 construct: His tag (TEV-cleavable) (N, cleaved yes); made in house; host or cells: Sf9 insect cells (baculovirus)
T3 sequence (Q04771 201-499 Q207D): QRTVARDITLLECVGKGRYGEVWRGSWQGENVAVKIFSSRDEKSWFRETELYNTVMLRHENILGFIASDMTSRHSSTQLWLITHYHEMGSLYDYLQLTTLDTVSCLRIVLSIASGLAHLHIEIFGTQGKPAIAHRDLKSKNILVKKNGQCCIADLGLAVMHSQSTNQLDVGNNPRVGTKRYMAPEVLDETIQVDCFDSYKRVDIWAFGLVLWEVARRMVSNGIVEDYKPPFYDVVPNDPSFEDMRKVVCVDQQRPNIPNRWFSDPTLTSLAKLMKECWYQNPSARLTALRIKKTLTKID
The experiment in a line: Thermal shift kinase assay ALK2. The format is binding. Conditions: for ΔTm at 10 µM: 10 μM inhibitor; for ΔTmDiff.: ALK2 minus ALK5; for ΔT ALK2: Table 6; for ΔT Diff.: Table 6, ALK2 minus ALK5. In outline:
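Differential scanning fluorimetry on recombinant human kinase domains at 1-2 μM protein with 10 μM inhibitor, measuring ligand-induced shift in thermal melting temperature by real-time PCR instrument.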

Sequence of CDK3/cyclinE (Q00526 whole entry): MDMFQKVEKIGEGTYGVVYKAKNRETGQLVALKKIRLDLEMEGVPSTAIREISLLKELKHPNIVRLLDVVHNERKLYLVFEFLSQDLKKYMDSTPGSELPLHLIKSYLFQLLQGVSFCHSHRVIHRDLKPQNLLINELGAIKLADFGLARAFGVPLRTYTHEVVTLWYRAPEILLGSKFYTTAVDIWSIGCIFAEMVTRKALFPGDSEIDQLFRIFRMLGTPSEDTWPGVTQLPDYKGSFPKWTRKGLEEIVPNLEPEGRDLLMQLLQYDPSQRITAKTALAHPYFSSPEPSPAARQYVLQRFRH
Sequence of CDK3/cyclinE (P24864 whole entry partner): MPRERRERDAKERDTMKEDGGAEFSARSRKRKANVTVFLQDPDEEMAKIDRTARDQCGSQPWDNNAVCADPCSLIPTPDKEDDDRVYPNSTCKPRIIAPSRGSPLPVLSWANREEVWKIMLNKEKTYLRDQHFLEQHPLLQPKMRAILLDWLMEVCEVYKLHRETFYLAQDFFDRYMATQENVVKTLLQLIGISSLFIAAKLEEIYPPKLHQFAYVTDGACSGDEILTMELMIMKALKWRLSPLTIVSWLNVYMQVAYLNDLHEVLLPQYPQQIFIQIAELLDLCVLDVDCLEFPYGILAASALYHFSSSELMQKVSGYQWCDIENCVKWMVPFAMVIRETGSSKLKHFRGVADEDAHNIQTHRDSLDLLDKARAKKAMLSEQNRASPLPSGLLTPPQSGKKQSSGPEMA
Sequence of LOK (O94804 whole entry): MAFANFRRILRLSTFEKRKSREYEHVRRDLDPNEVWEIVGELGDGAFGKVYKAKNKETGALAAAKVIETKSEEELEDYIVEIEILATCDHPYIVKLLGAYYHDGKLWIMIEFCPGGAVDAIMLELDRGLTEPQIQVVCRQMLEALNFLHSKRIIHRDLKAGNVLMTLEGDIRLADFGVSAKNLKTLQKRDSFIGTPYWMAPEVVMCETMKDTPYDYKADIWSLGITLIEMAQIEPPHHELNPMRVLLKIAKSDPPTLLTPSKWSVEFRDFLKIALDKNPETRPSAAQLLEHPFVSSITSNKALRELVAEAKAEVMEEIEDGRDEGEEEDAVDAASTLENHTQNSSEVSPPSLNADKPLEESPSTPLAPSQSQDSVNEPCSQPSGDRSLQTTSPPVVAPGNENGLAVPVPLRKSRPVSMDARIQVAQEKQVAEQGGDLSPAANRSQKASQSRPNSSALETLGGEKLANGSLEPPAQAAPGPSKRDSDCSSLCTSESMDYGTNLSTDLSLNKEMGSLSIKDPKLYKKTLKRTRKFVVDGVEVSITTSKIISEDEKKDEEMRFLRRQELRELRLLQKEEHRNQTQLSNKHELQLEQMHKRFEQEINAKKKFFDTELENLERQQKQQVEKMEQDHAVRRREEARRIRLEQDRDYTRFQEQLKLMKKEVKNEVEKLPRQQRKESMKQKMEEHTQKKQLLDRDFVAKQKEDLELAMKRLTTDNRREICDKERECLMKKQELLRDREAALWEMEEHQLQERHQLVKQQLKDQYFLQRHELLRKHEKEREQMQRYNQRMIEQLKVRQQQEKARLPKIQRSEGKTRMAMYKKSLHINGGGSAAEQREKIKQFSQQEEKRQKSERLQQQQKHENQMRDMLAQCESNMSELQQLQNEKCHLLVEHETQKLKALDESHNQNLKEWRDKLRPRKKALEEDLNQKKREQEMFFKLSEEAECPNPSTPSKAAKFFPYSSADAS
Sequence of CK1-γ1 (Q9HCP0 whole entry): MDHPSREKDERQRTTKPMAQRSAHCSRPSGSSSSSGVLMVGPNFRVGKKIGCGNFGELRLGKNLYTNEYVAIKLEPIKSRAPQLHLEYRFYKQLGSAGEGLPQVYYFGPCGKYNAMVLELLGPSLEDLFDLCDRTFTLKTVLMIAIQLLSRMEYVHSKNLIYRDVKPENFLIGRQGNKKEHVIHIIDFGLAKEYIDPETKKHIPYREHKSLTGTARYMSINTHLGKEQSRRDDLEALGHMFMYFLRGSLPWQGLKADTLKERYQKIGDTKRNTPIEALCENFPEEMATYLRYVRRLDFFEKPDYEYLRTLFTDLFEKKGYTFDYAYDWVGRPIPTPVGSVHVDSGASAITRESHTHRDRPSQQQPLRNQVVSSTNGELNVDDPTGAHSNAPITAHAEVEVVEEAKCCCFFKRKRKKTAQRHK
Sequence of CDK1/cyclinB (P06493 whole entry): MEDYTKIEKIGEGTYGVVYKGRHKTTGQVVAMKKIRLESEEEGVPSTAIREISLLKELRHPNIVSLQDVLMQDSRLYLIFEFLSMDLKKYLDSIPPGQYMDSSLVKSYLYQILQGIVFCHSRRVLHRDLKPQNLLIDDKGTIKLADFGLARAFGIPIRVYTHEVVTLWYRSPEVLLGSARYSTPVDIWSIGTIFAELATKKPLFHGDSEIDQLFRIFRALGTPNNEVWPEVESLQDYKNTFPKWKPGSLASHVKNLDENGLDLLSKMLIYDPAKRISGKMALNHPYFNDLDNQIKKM
Sequence of CDK1/cyclinB (P14635 whole entry partner): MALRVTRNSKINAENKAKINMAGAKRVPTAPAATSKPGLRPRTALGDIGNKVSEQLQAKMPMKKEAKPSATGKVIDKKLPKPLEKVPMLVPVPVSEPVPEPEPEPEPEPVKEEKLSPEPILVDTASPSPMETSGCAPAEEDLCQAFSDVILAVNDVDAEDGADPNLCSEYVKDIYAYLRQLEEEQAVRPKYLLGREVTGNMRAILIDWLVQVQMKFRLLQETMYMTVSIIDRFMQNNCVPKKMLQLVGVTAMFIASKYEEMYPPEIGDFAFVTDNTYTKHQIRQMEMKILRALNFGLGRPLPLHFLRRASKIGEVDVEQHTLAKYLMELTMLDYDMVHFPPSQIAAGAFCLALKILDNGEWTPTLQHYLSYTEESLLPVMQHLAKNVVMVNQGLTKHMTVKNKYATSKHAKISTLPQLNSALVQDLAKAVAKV

What is called ΔTm is the change in melting temperature against a reference sample. Take `COc1cc(-c2cc(-c3ccc(N4CCNCC4)cc3)cnc2N)cc(OC)c1OC` [Compound 15, 5-(4-(piperazin-1-yl)phenyl)-3-(3,4,5-trimethoxyphenyl)pyridin-2-amine]: the inhibition at 0.1 µM is 1% at IKK-β; -1% at CDK1/cyclinB; -1% on ROCK2; 1% on BRSK2; 0% at CDK3/cyclinE; 32% at LOK. Further, the results for the inhibition at 0.1 µM on CK1-γ1 and on YES were 4% and 41%, respectively. Besides, the inhibition at 1 µM worked out at 3% at IKK-β; 0% on CDK1/cyclinB; 2% at ROCK2; 2% on BRSK2; 0% on CDK3/cyclinE; 73% at LOK. The results for the inhibition at 1 µM on CK1-γ1 and on YES were 17% and 82%, respectively. Further, the thermal shift (ΔTm) at 10 µM on ALK2 turned out to be 15.1 °C. Moreover, the ΔTmDiff. at ALK2 worked out at 1.2. In addition, the “ΔT ALK2” value on ALK2 was determined as 15.1 °C. Further, on ALK2, the “ΔT Diff.” value was 1.2 °C.

Turning to `COc1cc(-c2cc(-c3ccc(N4CCNCC4)cc3)cnc2C)cc(OC)c1OC` [Compound 10, 1-(4-(6-methyl-5-(3,4,5-trimethoxyphenyl)pyridin-3-yl)phenyl)piperazine], the inhibition at 0.1 µM on IKK-β stood at 2%; at CDK1/cyclinB, 2%; on ROCK2, 4%; at BRSK2 it was 2%; at CDK3/cyclinE it was 2%; on LOK it was 9%. For the same molecule, the inhibition at 0.1 µM on CK1-γ1 was determined as 1%; on YES it was 11%. In addition, the inhibition at 1 µM came to 2% at IKK-β; 3% at CDK1/cyclinB; 3% on ROCK2; 1% on BRSK2; 2% at CDK3/cyclinE; 47% on LOK. The figures for the inhibition at 1 µM at CK1-γ1 and at YES were 6% and 47%, respectively. Besides, the ΔTm at 10 µM at ALK2 is 13.7 °C. The ΔTmDiff. at ALK2 came out at 4.0. Further, on ALK2, the “ΔT ALK2” value came out at 13.7 °C. Also, the “ΔT Diff.” value at ALK2 was 4.0 °C.
